Measurements from ChEMBL document CHEMBL1221243, “Design, synthesis, and biological evaluation of a novel series of quercetin diacylglucosides as potent anti-MRSA and anti-VRE agents” (Bioorg Med Chem Lett, 2010).
≈ marks a conversion by molar mass, not a printed value.

How the values were obtained:
Staphylococcus aureus [1] = assay: Antimicrobial activity against methicillin-resistant Staphylococcus aureus COL after 24 hrs by microdilution assay; assay type: functional
Escherichia coli = assay: Antimicrobial activity against Escherichia coli K-12 after 24 hrs by microdilution assay; assay type: functional; details: K-12, 24 h
[2] = Inhibition of Escherichia coli DNA gyraseB calculated by AutoDock docking into the ATP binding site
Staphylococcus aureus [3] = assay: Antimicrobial activity against methicillin-resistant Staphylococcus aureus OM481 after 24 hrs by microdilution assay; assay type: functional; details: OM481, 24 h
[4] = Inhibition of Escherichia coli DNA gyraseB assessed as inhibition of pBR322 supercoiling by densitometry
Staphylococcus aureus [5] = assay: Antimicrobial activity against methicillin-resistant Staphylococcus aureus N315 after 24 hrs by microdilution assay; assay type: functional; details: N315, 24 h
Staphylococcus aureus [6] = assay: Antimicrobial activity against methicillin-sensitive Staphylococcus aureus 209P after 24 hrs by microdilution assay; assay type: functional
Staphylococcus aureus [7] = assay: Antimicrobial activity against methicillin-resistant Staphylococcus aureus OM584 after 24 hrs by microdilution assay; assay type: functional; details: OM584, 24 h
Enterococcus [8] = assay: Antimicrobial activity against vancomycin-resistant Enterococcus NCTC 12201 after 24 hrs by microdilution assay; assay type: functional; details: NCTC 12201, 24 h
Enterococcus [9] = assay: Antimicrobial activity against vancomycin-resistant Enterococcus FN-1 after 24 hrs by microdilution assay; assay type: functional; details: FN-1, 24 h
Staphylococcus aureus [10] = assay: Antimicrobial activity against vancomycin intermediate-resistant Staphylococcus aureus Mu50 after 24 hrs by microdilution assay; assay type: functional; details: Mu50, 24 h

Structure (SMILES): CCn1cc(C(=O)O)c(=O)c2cc(F)c(N3CCNCC3)cc21 [NORFLOXACIN]
- MIC (Staphylococcus aureus [1]): 1 µg/mL (≈ 3.13 µM)
- MIC (Escherichia coli): 0.25 µg/mL (≈ 0.783 µM)
- Ki [2]: 0.09 nM
- MIC (Staphylococcus aureus [3]): 64 µg/mL (≈ 200 µM)
- IC50 [4]: 90 nM
- MIC (Staphylococcus aureus [5]): 2 µg/mL (≈ 6.26 µM)
- MIC (Staphylococcus aureus [6]): 0.5 µg/mL (≈ 1.57 µM)
- MIC (Staphylococcus aureus [7]): 128 µg/mL (≈ 401 µM)

Structure (SMILES): CN[C@H](CC(C)C)C(=O)N[C@H]1C(=O)N[C@@H](CC(N)=O)C(=O)N[C@H]2C(=O)N[C@H]3C(=O)N[C@H](C(=O)N[C@H](C(=O)O)c4cc(O)cc(O)c4-c4cc3ccc4O)[C@H](O)c3ccc(c(Cl)c3)Oc3cc2cc(c3O[C@@H]2O[C@H](CO)[C@@H](O)[C@H](O)[C@H]2O[C@H]2C[C@](C)(N)[C@H](O)[C@H](C)O2)Oc2ccc(cc2Cl)[C@H]1O [VANCOMYCIN]
- MIC (Staphylococcus aureus [1]): 0.25 µg/mL (≈ 0.173 µM)
- MIC (Enterococcus [8]): > 128 µg/mL
- MIC (Enterococcus [9]): > 128 µg/mL
- MIC (Staphylococcus aureus [3]): 0.25 µg/mL (≈ 0.173 µM)
- MIC (Staphylococcus aureus [5]): 0.25 µg/mL (≈ 0.173 µM)
- MIC (Staphylococcus aureus [10]): 8 µg/mL (≈ 5.52 µM)
- MIC (Staphylococcus aureus [6]): 0.25 µg/mL (≈ 0.173 µM)
- MIC (Staphylococcus aureus [7]): 0.25 µg/mL (≈ 0.173 µM)
